From patent EP0293500A1, “3-heteroalkyl-2,4.quinzaoline-diones” (AMERICAN CYANAMID COMPANY, priority 1987, dated 1988)

Key:
[1] = system: spontaneously hypertensive rats of the Okamoto strain; assay: Hypotensive activity in spontaneously hypertensive rats (method of Chan and Poorvin); assay type: in vivo; conditions: male SHR, average MABP 160±1.5 mm of mercury; gavage, 100 mg/kg or less, second identical dose 24 hours later; MABP at 28 hours after the initial dose; number of rats in brackets
Protocol: The novel compounds of the present invention are also active hypotensive agents and were tested for hypotensive activity by the method of P. S. Chan and b. Poorvin, Clinical and Experimental Hypertension, 1 (6), 817-830 (1979). Male, 16 week old, spontaneously hypertensive rats of the Okamoto strain, from Taconic Farms, Germantown, New York having an average mean arterial blood pressure of 160±1.5 mm of mercury were used in the test. […] A second identical dose of the test compound, without sodium chloride loading is given 24 hours later. At 28 hours after the initial dose, the mean arterial blood pressure (MABP) is measured by the method of Chan and Poorvin vide supra. The procedure is repeated in a second and third rat when necessary. The results of this test on representative compounds of the present invention appear in Table II below.

[2] = biological target: T1, thromboxane synthetase (Rattus norvegicus, UniProt P49430); assay: Inhibition of thromboxane (TX) formation (TXB2 radioimmunoassay) in washed rat platelets; assay type: cell-based, Okamoto-Aoki spontaneously hypertensive rats (SHR); conditions: percent inhibition of TXB2 formation; drug at 10^-4M; SHR platelet suspension, 10 minutes at 37 C
T1 construct: The platelets were isolated by centrifuging the PRP for 10 minutes at 1060xg; from tissue; host or cells: washed blood platelets from Okamoto-Aoki spontaneously hypertensive rats (SHR)
T1 sequence (P49430 1-533): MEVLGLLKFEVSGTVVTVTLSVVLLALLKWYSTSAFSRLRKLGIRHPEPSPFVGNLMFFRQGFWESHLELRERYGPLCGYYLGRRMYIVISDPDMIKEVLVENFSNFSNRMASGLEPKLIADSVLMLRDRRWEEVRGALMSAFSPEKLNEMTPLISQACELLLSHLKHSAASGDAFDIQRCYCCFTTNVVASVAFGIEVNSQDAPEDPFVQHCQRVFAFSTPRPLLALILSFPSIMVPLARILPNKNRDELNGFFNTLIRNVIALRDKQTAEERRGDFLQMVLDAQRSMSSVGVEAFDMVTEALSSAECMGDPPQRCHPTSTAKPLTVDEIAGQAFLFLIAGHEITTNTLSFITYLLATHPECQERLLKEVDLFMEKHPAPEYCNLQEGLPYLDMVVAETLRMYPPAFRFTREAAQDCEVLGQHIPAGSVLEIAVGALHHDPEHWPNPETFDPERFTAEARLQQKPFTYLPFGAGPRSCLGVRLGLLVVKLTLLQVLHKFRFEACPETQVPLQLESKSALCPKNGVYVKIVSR
Excerpt: The platelet rich plasma (PRP) was separated. […] The inhibition of thromboxane (TX) formation was studied by determing the concentration of thromboxane […] (TXB2), the stable hydrolysis product of TXA2.

Row | inhibition at 100 µM [2] [%] | SMILES | MABP/mm Hg (no. of rats) [1]
1 |  | CC(CCn1cnc2ccccc2c1=O)n1ccnc1.O=C(O)/C=C/C(=O)O (centres unmarked) [3-[3-(1H-Imidazol-1-yl)butyl]-4(3H)-quinazolinone, fumarate salt] | 119(2) mm Hg
2 | 97 | O=c1c2ccccc2nnn1CCCn1ccnc1 [3-[3-(1H-Imidazol-1-yl)propyl]-1,2,3-benzotriazin-4(3H)-one] | 111(2) mm Hg
3 | 90 | O=c1c2cc(Cl)ccc2nnn1CCCCCCCCn1ccnc1 [6-Chloro-3-[8-(1H-imidazol-1-yl)octyl]-1,2,3-benzotriazin-4(3H)-one, monohydro-chloride] | 116(2) mm Hg
4 | 76 | O=c1[nH]c2ccccc2c(=O)n1CCCn1ccnc1 [Example 10, 3-[3-(1 H-Imidazol-1-yl)propyl]-2,4-(1H,3H)-quinazolinedione] | 131(3) mm Hg
5 | 100 | O=c1[nH]c2ccccc2c(=O)n1CCCCn1ccnc1 [Example 11, 3-[4-(1H-Imidazol-1-yl)butyl]-2,4(1H,3H)-quinazolinedione] | 108(2) mm Hg
6 | 98 | O=c1[nH]c2ccc(Br)cc2c(=O)n1CCCCn1ccnc1 [Example 12, 6-Bromo-3-[4-(1H-imidazol-1-yl)butyl]-2,4(1H,3H)-quinazolinedione] | 107(2) mm Hg
7 | 88 | Cc1ccc2[nH]c(=O)n(CCC(C)n3ccnc3)c(=O)c2c1 (centres unmarked) [Example 17, 3-[3-(1H-Imidazol-1-yl)butyl]-6-methyl-2,4(1H,3H)-quinazolinedione] | 111(2) mm Hg
8 | 98 | O=c1[nH]c2ccccc2c(=O)n1CCCCCn1ccnc1 [Example 18, 3-[5-(1 H-Imidazol-1-yl)pentyl]-2,4(1H,3H)-quinazolinedione] | 104(2) mm Hg
9 | 98 | Cc1cn(CCCn2c(=O)[nH]c3ccccc3c2=O)cn1 [Example 19, 3-[3-(4-Methyl-1H-imidazol-1-yl)propyl]-2,4(1H,3H)-quinazolinedione] | 135(3) mm Hg
10 | 100 | CC(CCn1c(=O)[nH]c2ccccc2c1=O)n1ccnc1 (centres unmarked) [Example 20, 3-[3-(1H-Imidazol-1-yl)butyl]-2,4(1H,3H)-quinazolinedione] | 121(3) mm Hg
11 | 100 | CC(Cn1ccnc1)Cn1c(=O)[nH]c2ccccc2c1=O (centres unmarked) [Example 21, 3-[3-(1H-Imidazol-1-yl)-2-methylpropyl]-2,4(1H,3H)-quinazolinedione] | 112(2) mm Hg
12 | 93 | O=c1[nH]c2ccc(Cl)cc2c(=O)n1CCCCn1ccnc1 [Example 24, 6-Chloro-3-[4-(1H-imidazol-1-yl)butyl]-2,4(1H,3H)-quinazolinedione] | 106(2) mm Hg
13 | 99 | Cc1cn(CCCn2c(=O)[nH]c3ccc(Cl)cc3c2=O)cn1 [Example 26, 6-Chloro-3-[3-(4-methyl-1H-imidazol-1-yl)-propyl]-2,4(1H,3H)-quinazolinedione] | 125(3) mm Hg
14 | 70 | Cc1cn(CCCCn2c(=O)[nH]c3ccc(Cl)cc3c2=O)cn1 [Example 28, 6-Chloro-3-[4-(4-methyl-1H-imidazol-1-yl)butyl]-2,4(1H,3H)-quinazolinedione] | 118(2) mm Hg
15 | 98 | CC(CCn1c(=O)[nH]c2ccc(Cl)cc2c1=O)n1ccnc1 (centres unmarked) [Example 30, 6-Chloro-3-[3-(1H-imidazol-1-yl)-butyl]-2,4(1H,3H)-quinazolinedione] | 113(2) mm Hg
16 | 100 | CC(Cn1ccnc1)Cn1c(=O)[nH]c2ccc(Cl)cc2c1=O (centres unmarked) [Example 31, 6-Chloro-3-[3-(1H-imidazol-1-yl)-2-methylpropyl]-2,4(1H,3H)-quinazolinedione] | 126(3) mm Hg
17 | 59 | O=c1[nH]c2cc(Cl)ccc2c(=O)n1CCCCn1ccnc1 [Example 40, 7-Chloro-3-[4-(1H-imidazol-1-yl)butyl]-2,4(1H,3H)-quinazolinedione] | 102(2) mm Hg

Row | inhibition at 100 µM [2] [%] | SMILES | MABP/mm Hg (no. of rats) [1]
18 | 51 | CC(CCn1c(=O)[nH]c2cc(Cl)ccc2c1=O)n1ccnc1 (centres unmarked) [Example 41, 7-Chloro-3-[3-(1H-imidazol-1-yl)butyl]-2,4(1H,3H)-quinazolinedione] | 128(2) mm Hg
19 | 75 | CC(Cn1ccnc1)Cn1c(=O)[nH]c2cc(Cl)ccc2c1=O (centres unmarked) [Example 42, 7-Chloro-3-[3-(1H-imidazol-1-yl)-2-methylpropy]-2,4(1H,3H)-quinazolinedione] | 121(2) mm Hg
20 | 62 | O=c1[nH]c2c(Cl)cccc2c(=O)n1CCCCn1ccnc1 [Example 43, 8-Chloro-3-[4-(1H-imidazol-1-yl)butyl]-2,4(1H,3H)-quinazolinedione] | 85(2) mm Hg
21 | 71 | CC(CCn1c(=O)[nH]c2c(Cl)cccc2c1=O)n1ccnc1 (centres unmarked) [Example 44, 8-Chloro-3-[3-(1H-imidazol-1-yl)butyl]-2,4(1H,3H)-quinazolinedione] | 112(2) mm Hg
22 |  | Cc1ccc2c(=O)n(CCCCn3ccnc3)c(=O)[nH]c2c1C [Example 50, 7,8-Dimethyl-3-[4-(1H-imidazol-1-yl)-butyl]-2,4(1H,3H)-quinazolinedione] | 104(2) mm Hg
23 | 68 | O=c1c2ccccc2nnn1CCCCn1ccnc1 [Example 75, 3-[4-(1 H-Imidazol-1-yl)butyl]-1,2,3-benzotriazin-4(3H)-one] | 114(2) mm Hg
24 | 74 | O=c1c2cc(Cl)ccc2nnn1CCCn1ccnc1 [Example 76, 6-Chloro-3-[3-(1H-imidazol-1-yl)-propyl]-1,2,3-benzotriazin-4(3H)-one] | 127(3) mm Hg
25 | 96 | Cl.O=c1c2cc(Br)ccc2nnn1CCCCn1ccnc1 [Example 82, 6-Bromo-3-[4-(1H-imidazol-1-yl)-butyl]-1,2,3-benzotriazin-4(3H)-one, monohydrochloride] | 115(2) mm Hg
26 | 95 | Cc1ccc2nnn(CCCCn3ccnc3)c(=O)c2c1 [Example 84, 3-[4-(1H-Imidazol-1-yl)butyl]-6-methyl-1,2,3-benzotriazin-4(3H)-one] | 106(2) mm Hg
27 | 93 | Cc1ccc2c(=O)n(CCCCn3ccnc3)nnc2c1C.Cl [Example 86, 3-[4-(1H-Imidazol-1-yl)butyl]-7,8-dimethyl-1,2,3-benzotriazin-4(3H)-one, monohydrochloride] | 121(2) mm Hg
28 | 95 | CC(Cn1ccnc1)Cn1nnc2ccc([N+](=O)[O-])cc2c1=O.O (centres unmarked) [Example 87, 3-[3-(1H-Imidazol-1-yl)-2-methyl-propyl]-6-nitro-1,2,3-benzo-triazin-4(3H)-one, hydrate] | 114(2) mm Hg
29 |  | O=c1c2cc(Cl)ccc2nnn1CCCCn1ccnc1 [Example 88, 6-Chloro-3-[4-(1H-imidazol-1-yl)-butyl]-1,2,3-benzotriazin-4(3H)-one] | 105(2) mm Hg
30 | 82 | O=c1c2cc(Cl)ccc2nnn1CCCCCn1ccnc1 [Example 99, 6-Chloro-3-[5-(1H-imidazol-1-yl)pentyl]-1,2,3-benzotriazin-4(3H)-one] | 117(2) mm Hg
31 | 73 | O=c1c2cc(Cl)ccc2nnn1CCCCCCn1ccnc1 [Example 100, 6-Chloro-3-[6-(1H-imidazol-1-yl)hexyl]-1,2,3-benzotriazin-4(3H)-one] | 109(2) mm Hg
32 |  | Cl.Cl.O=c1c2ccccc2ncn1CCCCCn1ccnc1 [Example 137, 3-[5-(1H-Imidazol-1-yl)pentyl]-4(3H)-quinazolinone, dihydrochloride] | 110(2) mm Hg
33 |  | O=c1c2ccc(Cl)cc2ncn1CCCCn1ccnc1 [Example 149, 7-Chloro-3-(4-(1H-imidazol-1-yl)butyl]-4(3H)-quinazolinone] | 126(2) mm Hg
34 |  | CCc1nc2ccc(Cl)cc2c(=O)n1CCCn1ccnc1 [Example 158, 6-Chloro-2-ethyl-3-[3-(1H-imidazol-1-yl)propyl]-4(3H)-quinazolinone] | 120(4) mm Hg
